Test [1] addresses T1, Glucose-dependent insulinotropic receptor (Homo sapiens, UniProt Q8TDV5).
T1 sequence (Q8TDV5 whole entry): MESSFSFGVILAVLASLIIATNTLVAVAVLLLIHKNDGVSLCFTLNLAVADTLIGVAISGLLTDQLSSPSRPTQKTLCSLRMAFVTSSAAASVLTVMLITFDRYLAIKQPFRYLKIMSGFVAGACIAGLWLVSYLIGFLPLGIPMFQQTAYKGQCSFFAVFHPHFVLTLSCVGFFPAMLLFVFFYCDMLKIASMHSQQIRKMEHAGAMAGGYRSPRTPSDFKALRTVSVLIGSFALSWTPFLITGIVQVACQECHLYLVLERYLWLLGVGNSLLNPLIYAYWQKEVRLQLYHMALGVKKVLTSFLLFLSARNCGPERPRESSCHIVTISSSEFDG
Nature of the test: Agonist activity at human GPR119 expressed in HEK293 cells assessed as stimulation of cAMP level measured after 60 mins by HTRF assay. It counts as functional, cell-based. (In general: Cyclic AMP is a second messenger, typically raised through Gs and lowered through Gi signalling.)

For test [2], the target named is T2, Glucose-dependent insulinotropic receptor (Homo sapiens) (UniProt Q8TDV5).
T2 sequence (whole entry): T1 sequence (Q8TDV5 whole entry)
Briefly: Agonist activity at human GPR119 expressed in HEK293 cells assessed as stimulation of cAMP level measured after 60 mins by HTRF assay relative to OEA. It counts as functional, cell-based.

pEC50: −log10 of the molar value. Where only a bound is given, the exact number is not on record here.

These results are taken from ChEMBL document CHEMBL3868606, “Novel 5-nitropyrimidine derivatives bearing endo-azabicyclic alcohols/amines as potent GPR119 agonists” (Bioorg Med Chem, 2017).

In the case of `CS(=O)(=O)c1ccc(Nc2ncnc(NC3C[C@H]4CC[C@H](C3)N4S(=O)(=O)c3ccc(F)cc3)c2[N+](=O)[O-])c(F)c1` (some centres undefined), the pEC50 in test [1] was under 5.70. Besides, the Emax in test [2] is 24.8%.

`CS(=O)(=O)c1ccc(Nc2ncnc(OC3C[C@H]4CC[C@H](C3)N4S(=O)(=O)c3ccc(F)cc3)c2[N+](=O)[O-])c(F)c1` (some centres undefined): the pEC50 in test [1] is 8.46. Also, the Emax in test [2] came to 88.8%.

As for `CC(C)OC(=O)N1[C@@H]2CC[C@@H]1CC(Oc1ncnc(Nc3ccc(S(C)(=O)=O)cc3F)c1[N+](=O)[O-])C2` (relative stereo), the pEC50 in test [1] is 9.22. The Emax in test [2] worked out at 103%.

Consider `CS(=O)(=O)c1ccc(Nc2ncnc(NC3C[C@H]4CC[C@H](C3)N4S(C)(=O)=O)c2[N+](=O)[O-])c(F)c1` (relative stereo), for which, in test [1], the pEC50 is under 5.70. For the same compound, the Emax in test [2] worked out at 49.5%.

As to `CC(C)(C)OC(=O)N1[C@@H]2CC[C@@H]1CC(Oc1ncnc(Oc3ccccc3Cl)c1[N+](=O)[O-])C2` (relative stereo), the pEC50 in test [1] is 7.35. Further, in test [2], the Emax was found to be 89.8%.

For `CS(=O)(=O)c1ccc(Nc2ncnc(OC3C[C@H]4CC[C@H](C3)N4S(C)(=O)=O)c2[N+](=O)[O-])c(F)c1` (relative stereo), in test [1], the pEC50 is 8.80. Also, the Emax in test [2] turned out to be 117%.

Turning to `CC(C)(C)OC(=O)N1[C@@H]2CC[C@@H]1CC(Nc1ncnc(Nc3ccc(C#N)cc3F)c1[N+](=O)[O-])C2` (relative stereo), the pEC50 in test [1] is 8.89. The Emax in test [2] was 114%.

For the compound `CC(C)(C)OC(=O)N1[C@@H]2CC[C@@H]1CC(Nc1ncnc(Nc3ccc(S(C)(=O)=O)cc3F)c1[N+](=O)[O-])C2` (relative stereo), in test [1], the pEC50 is 8.82. The Emax in test [2] was 99%.

Take `CS(=O)(=O)c1ccc(Nc2ncnc(NC3C[C@H]4CC[C@H](C3)N4C(=O)OCC3CC3)c2[N+](=O)[O-])c(F)c1` (relative stereo): in test [1], the pEC50 was under 5.70. Besides, the Emax in test [2] worked out at 25.1%.

On to `CCOC(=O)N1[C@@H]2CC[C@@H]1CC(Nc1ncnc(Nc3ccc(S(C)(=O)=O)cc3F)c1[N+](=O)[O-])C2` (relative stereo), for which the pEC50 in test [1] was under 5.70. In addition, in test [2], the Emax was 32.5%.

In the case of `CC(C)OC(=O)N1[C@@H]2CC[C@@H]1CC(Nc1ncnc(Nc3ccc(S(C)(=O)=O)cc3F)c1[N+](=O)[O-])C2` (relative stereo), in test [1], the pEC50 is 8.21. Besides, the Emax in test [2] came out at 54.5%.

For `CC(C)(C)OC(=O)N1[C@@H]2CC[C@@H]1CC(Nc1ncnc(Oc3ccccc3Cl)c1[N+](=O)[O-])C2` (relative stereo), the pEC50 in test [1] is under 5.70. Further, the Emax in test [2] worked out at 37.2%.

For the compound `CC(C)(C)OC(=O)N1[C@@H]2CC[C@@H]1CC(Oc1ncnc(Nc3ccc(S(C)(=O)=O)cc3F)c1[N+](=O)[O-])C2` (relative stereo), the pEC50 in test [1] was 8.82. In addition, the Emax in test [2] is 116%.

On to `CS(=O)(=O)c1ccc(Nc2ncnc(OC3C[C@H]4CC[C@H](C3)N4C(=O)OCC3CC3)c2[N+](=O)[O-])c(F)c1` (relative stereo), for which the pEC50 in test [1] was under 5.70. The Emax in test [2] was 21.3%.

With `CC(C)(C)OC(=O)N1[C@@H]2CC[C@@H]1CC(Nc1ncnc(Nc3ccc(C#N)cc3Cl)c1[N+](=O)[O-])C2` (relative stereo), the pEC50 in test [1] is 6.69. Also, in test [2], the Emax stood at 59%.

As for `CCOC(=O)N1[C@@H]2CC[C@@H]1CC(Oc1ncnc(Nc3ccc(S(C)(=O)=O)cc3F)c1[N+](=O)[O-])C2` (relative stereo), in test [1], the pEC50 is 8.85. The Emax in test [2] stood at 116%.

For `CC(C)(C)OC(=O)N1[C@@H]2CC[C@@H]1CC(Nc1ncnc(Nc3ccccc3C#N)c1[N+](=O)[O-])C2` (relative stereo), the pEC50 in test [1] is under 5.70. Also, the Emax in test [2] was found to be 46.2%.

Broadly, the pEC50 is −log10 of the EC50, conventionally taken in molar units. By Emax is commonly meant the size of the effect at its maximum, as opposed to the concentration needed.
